Tests used:
Assay type in all cases: biochemical
[1] = biological target: T1, purified recombinant α-2,3-sialyltransferase (Neisseria meningitidis serogroup B, UniProt P72097); assay: Enzymatic properties of the purified recombinant α-2,3-sialyltransferase (standard assay); settings: for inhibition at 1000 µM: 1 mM, standard assay; for activity stimulated by presence: 20 mM
T1 construct: made in house; host or cells: E. coli BMH71-18/pNST-18
Description: (§1) Measurement of Sialyltransferase Activity and Survey of Oligosaccharide Acceptors--FCHASE-labelled oligosaccharides were prepared as described above, while the APTS-labelled oligosaccharides were prepared by reductive amination of reducing saccharides according to the method described by Guttman et at. (Anal. Biochem233:234 (1996)) The Gal-β-APTS acceptor was derived from labelling of lactose; the Gal-α-APTS acceptor was derived from labelling of melibiose; the N-acetyllactosamine (LacNAc) acceptor was synthesized by APTS labelling of chitobiose, followed by enzymatic modification with bovine β-Galactosyl transferase to produce the LacNAc moiety-, the Gal-α-1.4-Gal-β acceptor was enzymatically synthesized from β-Gal-APTS with the α-1,4-galactosyltransferase from N. meningitidis. All of the reductive amination products were purified by gel permeation chromatography on Toyopearl HW4OF (Sigma-Aldrich), 1.5 cm×15 cm column, using water as the eluant. It should be mentioned that all of these molecules have the terminal reducing sugar ring opened in the process of labelling. APTS-saccharides were quantitated by measuring the A455, and using an extinction coefficient of 17160 M^-1 cm^-1 . The TMR-labelled oligosaccharides were prepared as described by Zhao et al. (1994) Glycobiology 4:239-242. For the TMR labelled acceptors we used an extinction coefficient of 80,000 M^-1 cm^-1 for quantitation. The sialyltransferase activity was routinely measured using 0.5 mM FCHASE-N-acetyllactosamine as the acceptor and the assay conditions as described above. For measurement of Km, and kcat values, assays were performed with the APTS labelled saccharides at room temperature. Assays were monitored so that for all acceptor concentrations, no more than 10% conversion to product occurred. The ranges of acceptor and donor concentrations were determined empirically, then a range spanning 0.2Km, up to 5Km, was used to obtain the values. Data were examined using the Grafit™3.0 software package (Erithacus Software, London, UK).
(§2) The reaction mixtures from the FCHASE- and APTS-labelled acceptors were analyzed by capillary electrophoresis performed with a Beckman instruments (Fullerton, Calif.) P/ACE 5510 equipped with a 3 mW Argon-ion laser induced fluorescence detector, λ excitation=488 nm λ emission=520 nm. The Capillary was of bare silica 75 μ X 57 cm, with the detector at 50 cm. The capillary was conditioned before each run by washing with 0.2 M NaOH for 2 min., water for 2 min., and either 20 mM sodium phosphate buffer, pH 7.4 or sodium tetraborate, pH 9.3, 2 min. Samples were introduced by pressure injection for 2-5 seconds, and the separation was performed at 18 kV, 75 μA. Peak integration was performed with the Beckman PACE-Station software (version 1).

[2] = biological target: T1, purified recombinant α-2,3-sialyltransferase; assay: Determination of kinetic constants with APTS-labelled acceptors; settings: for kcat IKm: apparent, APTS-labelled acceptor, CMP-Neu5Ac 200 μM
Description: as §1, §2

[3] = biological target: T2, N. meningitidis α-2,3-sialyltransferase (Neisseria meningitidis serogroup B, UniProt P72097); parameters: b112 rows possibly recombinant MC58 lst (pNST-01) in E. coli extracts; settings: for ratios of activity as acceptor: synthetic saccharide acceptors, relative to FCHASE-aminophenyl-LacNAc; for activity stimulated by addition: 10 mM, enzyme from N. meningitidis extracts
Description: Measurement of Sialyltransfrase Activity--The sialyltransferase activity from N. meningitidis MC58L3, 406Y L3 and M982B L7, and the E. coli carrying pNST plasmids was measured in toluene treated cells or cell free extracts prepared as described previously (Wakarchuk, et al. (1996) J. Biol. Chem. in Press) acceptors were derived from aminophenylglycosides reacted with 6(5-fluorescein-carboxamnido)-hexanoic acid succimidyl ester (FCHASE) and were prepared as previously described (Wakarchuk, et al. (1996) J. Biol. Chem. in Press). Reactions for the enzyme were performed at 37° C. in 20 μl of MES buffer, 50 mM pH 6.0, 10 mM MnCl2, with 0.2 or 1.0 mM labeled acceptor, 0.2 mM CMP-Neu5Ac donor and various amounts of enzyme, either from crude bacterial extracts, or extracts of recombinant E. coli with the cloned gene. The recombinant enzymes were assayed for 10-120 minutes, while extracts from N. meningitidis were incubated 1-15 h. The reactions were terminated by diluting the reaction 1:100 with 10 mM NaOH. These samples were then diluted appropriately in water prior to analysis by capillary electrophoresis.
Capillary electrophoresis (CE) and was performed with a Beckman (Fullerton, Calif.) P/ACE 5510 equipped with a 3 mW Argon-ion laser induced fluorescence detector, λ excitation=488 nm, λ emission=520 nm. The capillary was bare silica 75 μ X 47 cm, with the detector at 40 cm. The capillary was conditioned before each run by washing with 0.2 M NaOH for 2 min., water for 2 min., and 25 mM sodium tetraborate pH 9.4 for 2 min. Samples were introduced by pressure injection for 2-5 seconds, and the separation was performed at 15 kV, 75 μA. Peak integration was performed with the Beckman System Gold (version 8.1) software.
Target sequence in this assay (P72097 whole entry Q29H/E40D/N94K/T242A/K273N): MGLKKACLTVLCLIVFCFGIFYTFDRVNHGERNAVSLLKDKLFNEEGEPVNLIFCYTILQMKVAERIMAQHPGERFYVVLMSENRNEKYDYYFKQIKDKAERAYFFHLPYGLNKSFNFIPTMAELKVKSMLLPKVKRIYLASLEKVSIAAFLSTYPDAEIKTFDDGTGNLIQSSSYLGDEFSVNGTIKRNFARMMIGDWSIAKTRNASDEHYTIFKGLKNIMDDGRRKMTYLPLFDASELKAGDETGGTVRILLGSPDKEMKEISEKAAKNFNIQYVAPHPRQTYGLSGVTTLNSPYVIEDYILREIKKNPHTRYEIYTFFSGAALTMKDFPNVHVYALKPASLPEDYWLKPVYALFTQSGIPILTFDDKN

[4] = biological target: T1, purified recombinant α-2,3-sialyltransferase; assay: Survey of oligosaccharide acceptors (qualitative, CE or TLC)
Description: Measurement of Sialyltransferase Activity and Survey of Oligosaccharide Acceptors--FCHASE-labelled oligosaccharides were prepared as described above, while the APTS-labelled oligosaccharides were prepared by reductive amination of reducing saccharides according to the method described by Guttman et at. […] APTS-saccharides were quantitated by measuring the A455, and using an extinction coefficient of 17160 M^-1 cm^-1 . […] For the TMR labelled acceptors we used an extinction coefficient of 80,000 M^-1 cm^-1 for quantitation. The sialyltransferase activity was routinely measured using 0.5 mM FCHASE-N-acetyllactosamine as the acceptor and the assay conditions as described above. […] Assays were monitored so that for all acceptor concentrations, no more than 10% conversion to product occurred. The ranges of acceptor and donor concentrations were determined empirically, then a range spanning 0.2Km, up to 5Km, was used to obtain the values. […]
The reaction mixtures from the FCHASE- and APTS-labelled acceptors were analyzed by capillary electrophoresis performed with a Beckman instruments (Fullerton, Calif.) P/ACE 5510 equipped with a 3 mW Argon-ion laser induced fluorescence detector, λ excitation=488 nm λ emission=520 nm. […]

[5] = biological target: T2, N. meningitidis α-2,3-sialyltransferase; assay: Coupled sialylation of FCHASE-LacNAc with Neu5Ac, Neu5Pr or Neu5Gc and CMP-Neu5Ac synthetase; parameters: made in house; host or cells: E. coli BMH71-18/pNST-18; settings: for time to complete conversion of the acceptor (FCHASE-LacNAc): coupled reaction with CMP-Neu5Ac synthetase; for use as alternate donor, rate: compared with Neu5Ac
Description: Sialylation of FCHASE-thio-N-acetyllactosamine with N-acetyl-, N-propionyl and N-glycolyl-Neuraminic Acid--The 50 μL reaction mixtures included […] acceptor, and 2 mM of either Neu5Ac, Neu5Gc or Neu5Pr, in 100 mM Tris pH 7.5. 0.2 mM DTT, 10 mM MgCl2, […], with 50 mU inorganic pyrophosphatase (Sigma). 47 mU CMP-Neu5Ac synthetase, 5 mU purified α-2,3-sialyl-transferase. […] The masses of the sialylated products were measured in the negative ion mode on a VG Quattro triple quadrupole mass spectrometer (Fisons Instruments).
Target sequence in this assay (P72097 2-371): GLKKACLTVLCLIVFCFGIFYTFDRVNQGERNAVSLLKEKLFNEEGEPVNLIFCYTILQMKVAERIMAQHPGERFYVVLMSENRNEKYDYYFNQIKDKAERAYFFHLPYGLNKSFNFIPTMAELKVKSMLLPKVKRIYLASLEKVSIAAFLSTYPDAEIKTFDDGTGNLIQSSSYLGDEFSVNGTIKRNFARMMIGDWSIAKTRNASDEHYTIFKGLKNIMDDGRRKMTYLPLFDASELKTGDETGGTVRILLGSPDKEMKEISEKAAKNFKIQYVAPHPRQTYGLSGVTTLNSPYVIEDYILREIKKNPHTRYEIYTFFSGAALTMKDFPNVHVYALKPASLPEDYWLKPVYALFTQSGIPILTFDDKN

T1 sequence (P72097 2-371): as above

O[C@H](CS)[C@H](O)CS (racemic) [DTT, dithiothreitol]
effect on the activity ([1]; 1-20 mM range): no effect

Nc1ccn([C@@H]2O[C@H](COP(=O)(O)OP(=O)(O)O)[C@@H](O)[C@H]2O)c(=O)n1 [CDP]
inhibition at 1000 µM [1]: 40%

CC(=O)N[C@H]1[C@H]([C@H](O)[C@H](O)CO)O[C@](OP(=O)(O)OC[C@H]2O[C@@H](n3ccc(N)nc3=O)[C@H](O)[C@@H]2O)(C(=O)O)C[C@@H]1O [CMP-Neu5Ac]
substrate inhibition ([2]; as high as 1 mM CMP-Neu5Ac): No significant substrate inhibition

Nc1ccn([C@@H]2O[C@H](COP(=O)(O)O)[C@@H](O)[C@H]2O)c(=O)n1 [CMP]
inhibition at 1000 µM [1]: 80%

O=C(O)CN(CCN(CC(=O)O)CC(=O)O)CC(=O)O [EDTA]
activity in the presence of EDTA ([1]; 5 mM EDTA, purified enzyme): still active | activity in the presence of EDTA ([3]; 5 mM EDTA): active

O=C(CCCCCNC(=O)c1ccc(-c2c3ccc(=O)cc-3oc3cc(O)ccc23)c(C(=O)O)c1)Nc1ccc(OC2O[C@H](CO)[C@H](O)[C@H](O)[C@H]2O)cc1 (some centres unmarked) [FCHASE-aminophenyl-Gal]
ratios of activity as acceptor [3]: 0.03

CC(=O)N[C@H]1[C@H](Oc2ccc(NC(=O)CCCCCNC(=O)c3ccc(-c4c5ccc(=O)cc-5oc5cc(O)ccc45)c(C(=O)O)c3)cc2)O[C@H](CO)[C@@H](O[C@@H]2O[C@H](CO)[C@H](O)[C@H](O)[C@H]2O)[C@@H]1O [FCHASE-aminophenyl-LacNAc]
ratios of activity as acceptor [3]: 1

O=C(CCCCCNC(=O)c1ccc(-c2c3ccc(=O)cc-3oc3cc(O)ccc23)c(C(=O)O)c1)Nc1ccc(O[C@@H]2O[C@H](CO)[C@@H](O[C@@H]3O[C@H](CO)[C@H](O)[C@H](O)[C@H]3O)[C@H](O)[C@H]2O)cc1 [FCHASE-aminophenyl-Lac]
ratios of activity as acceptor [3]: 0.29

O=S(=O)(O)c1cc(NC[C@H](O)[C@@H](O)[C@H](O)[C@H](O)CO[C@H]2O[C@H](CO)[C@H](O)[C@H](O)[C@H]2O)c2ccc3c(S(=O)(=O)O)cc(S(=O)(=O)O)c4ccc1c2c34 [Gal-α-(1→6)-Gal, Gal-α-(1→6)-Gal*]
kcat IKm [2]: 31 min⁻¹ mM⁻¹

O=C(CCCCCNC(=O)c1ccc(-c2c3ccc(=O)cc-3oc3cc(O)ccc23)c(C(=O)O)c1)NCCCCCCS[C@@H]1O[C@H](CO)[C@H](O)[C@H](O)[C@H]1O [Gal-β S AH-FCHASE]
product formation with sulfur as the linkage atom [4]: product formation

O=S(=O)(O)c1cc(NC[C@H](O)[C@@H](O)[C@H](O[C@@H]2O[C@H](CO)[C@H](O)[C@H](O)[C@H]2O)[C@H](O)CO)c2ccc3c(S(=O)(=O)O)cc(S(=O)(=O)O)c4ccc1c2c34 [Gal-β-(1→4)-Glc, Gal-β-(1→4)-Glc*]
kcat IKm [2]: 22 min⁻¹ mM⁻¹

CC(=O)N[C@@H]1[C@@H](O)[C@H](O[C@@H]2O[C@H](CO)[C@H](O)[C@H](O)[C@H]2O)[C@@H](CO)O[C@H]1SCCCCCCNC(=O)CCCCCNC(=O)c1ccc(-c2c3ccc(=O)cc-3oc3cc(O)ccc23)c(C(=O)O)c1 [Gal-β-(1→4)-GlcNAc-β S AH-FCHASE]
product formation with sulfur as the linkage atom [4]: product formation

CC(=O)N[C@H]1[C@H](O[C@@H]([C@H](O)[C@H](CNc2cc(S(=O)(=O)O)c3ccc4c(S(=O)(=O)O)cc(S(=O)(=O)O)c5ccc2c3c54)NC(C)=O)[C@H](O)CO)O[C@H](CO)[C@@H](O[C@@H]2O[C@H](CO)[C@H](O)[C@H](O)[C@H]2O)[C@@H]1O [LacNAc, Gal-β-(1→4)-β-GlcNAc-β-GlcNAc*]
kcat IKm [2]: 105 min⁻¹ mM⁻¹ | increase of apparent Kcat/Km ([2]; relative to the terminal Gal-β monosaccharide acceptor): 5 fold

[Cl-].[Cl-].[Mg+2] [MgCl2]
activity stimulated by presence ([1]; purified enzyme): 3 fold | activity stimulated by addition [3]: 2 fold

[Cl][Mn][Cl] [MnCl2]
activity stimulated by presence ([1]; purified enzyme): 4 fold | activity stimulated by addition [3]: 3 fold

CC(=O)N[C@H]1[C@H]([C@H](O)[C@H](O)CO)OC(O)(C(=O)O)C[C@@H]1O (some centres unmarked) [Neu5Ac, 5-N-acetylneuraminic acid]
time to complete conversion of the acceptor (FCHASE-LacNAc) [5]: 60 min

O=C(CO)N[C@H]1[C@H]([C@H](O)[C@H](O)CO)OC(O)(C(=O)O)C[C@@H]1O (some centres unmarked) [Neu5Gc, 5-N-glcolylneuraminic acid]
conversion of the acceptor ([5]; after 120 min of incubation): above 90% | use as alternate donor, rate [5]: rates lower than with Neu5Ac

CCC(=O)N[C@H]1[C@H]([C@H](O)[C@H](O)CO)OC(O)(C(=O)O)C[C@@H]1O (some centres unmarked) [Neu5Pr, N-propionyl-Neuraminic Acid]
use as alternate donor, rate [5]: rates lower than with Neu5Ac | time to complete conversion of the acceptor (FCHASE-LacNAc) [5]: 90 min

O=S(=O)(O)c1cc(NC[C@H](O)[C@@H](O)[C@H](O[C@@H]2O[C@H](CO)[C@H](O[C@H]3O[C@H](CO)[C@H](O)[C@H](O)[C@H]3O)[C@H](O)[C@H]2O)[C@H](O)CO)c2ccc3c(S(=O)(=O)O)cc(S(=O)(=O)O)c4ccc1c2c34 [P^k, Gal-α-(1→4)-Gal-(1→4)-β-Glc*]
kcat IKm [2]: 5.6 min⁻¹ mM⁻¹

Triton X-100
effect of detergents on the enzyme ([3]; Triton X-100 up to 0.2%): exception

Source: patent US6096529A, “Recombinant α-2,3-sialyltransferases and their uses” (priority 1997, dated 2000)
